Where two headings read alike, the source gives them in different places.
Test system: human skin keratinocytes and/or fibroblasts
Assay: in vitro ROS probe assay: protection of live skin cells against ROS induced by visible light and infrared radiation
Type: cell-based
Design: key to Visible light protection % / IR protection %: Strong: “strong” refers to a percent protection greater than 70%; “Medium” refers to a percent protection less than or equal to 70% but greater than or equal to 40%; “Low” refers to a percent protection less than 40%; Negative: The term “negative” is used when there is no protection
Settings: cells pre-treated 24 hours at 10 μg/ml (0.001%), antioxidant removed before exposure; for inhibition at 10 µg/mL: Homo sapiens, light or radiation study
From the text: A sensitive in vitro ROS (Reactive Oxygen Species) probe was used to evaluate the protective effects of antioxidants on live skin cells against visible light and infrared radiation (IR). Based on a blind screening of 26 compounds, 12 compounds were discovered that efficiently (>40%) decrease the ROS induced by visible light and/or IR radiation on human skin keratinocytes and/or fibroblasts. These compounds (or mixtures of these compounds) provide biological protection for skin cells against visible light and infrared radiation.
Human cells were pre-treated with and without antioxidants for 24 hours at a very low concentration (10 μg/ml (0.001%)). After incubation for 24 hours, the cells were rinsed and the medium changed in order to remove all the antioxidants before light exposure. The cells were exposed to visible light (100 J/cm^2) and infrared radiation (200 J/cm^2) using Xenon Light Source 300W Monochromatic Light with Filters Max-303 (Asashi Spectra company). After exposure to the visible light and the IR radiation, a new ROS probe was incubated with the cells for one hour to track the in vitro ROS produced. A comfocal microscope and associated software was used to image the fluorescent signals from individual cells and quantify the fluorescence intensity. By comparing with control samples without a pretreatment of antioxidants, it was possible to quantify the protection effect.
In the table above, “strong” refers to a percent protection greater than 70%, “Medium” refers to a percent protection less than or equal to 70% but greater than or equal to 40%. “Low” refers to a percent protection less than 40%. The term “negative” is used when there is no protection. The protection percentage was defined according to the equation below (wherein the term “AOX” refers to “antioxidant”).
Since the in vitro tests were done on live human skin cells, kerotinocytes and fibroblasts, and the antioxidants in the cell culture media were removed before light exposure, the results directly predict the biological protection effects of the antioxidants on skin against visible light and infrared radiation.

[1] = ROS induced by infrared radiation (200 J/cm^2), read-out: IR protection %
[2] = ROS induced by visible light (100 J/cm^2), read-out: Visible light protection %
[3] = ROS induced by infrared radiation (200 J/cm^2)
[4] = ROS induced by visible light (100 J/cm^2)

Compound	inhibition at 10 µg/mL [1]	inhibition at 10 µg/mL [2]	IR protection % [3]	Visible light protection % [4]
C[C@@H]1O[C@@H](O[C@H]2C(=O)c3c(O)cc(O)cc3O[C@@H]2c2ccc(O)c(O)c2)[C@H](O)[C@H](O)[C@H]1O [Astilbin, astilbin]	40 to 70%	40 to 70%	–	–
O=C(O)[C@H]1O[C@@H](Oc2cc3oc(-c4ccccc4)cc(=O)c3c(O)c2O)[C@H](O)[C@@H](O)[C@@H]1O [Baicalin, baicalin]	40 to 70%	> 70%	–	–
NCCC(=O)N[C@@H](Cc1c[nH]cn1)C(=O)O [Carnosin]	–	–	Low (“Low” refers to a percent protection less than 40%)	Low (“Low” refers to a percent protection less than 40%)
COc1cc(/C=C/C(=O)O)ccc1O [Ferulic Acid, ferulic acid]	40 to 70%	40 to 70%	–	–
COc1ccc([C@@H]2CC(=O)c3c(O)cc(O)cc3O2)cc1O [Hesperetin, hesperetin]	< 40%	> 70%	–	–
COc1ccc(CCC(=O)c2c(O)cc(O[C@@H]3O[C@H](CO)[C@@H](O)[C@H](O)[C@H]3O[C@@H]3O[C@@H](C)[C@H](O)[C@@H](O)[C@H]3O)cc2O)cc1O [Neohesperidin DHC]	–	–	Strong (“strong” refers to a percent protection greater than 70%)	Negative
O=C(CCc1ccc(O)cc1)c1c(O)cc(O)cc1O [Phloretin]	–	–	–	Negative
OC[C@H]1O[C@@H](Oc2cc(O)cc(/C=C/c3ccc(O)cc3)c2)[C@H](O)[C@@H](O)[C@@H]1O [Polydatin, polydatin]	> 70%	> 70%	–	–
O=C1N[C@H](C(=O)O)CS1 [Pro-cysteine]	< 40%	–	–	Negative
Oc1ccc(C=Cc2cc(O)cc(O)c2)cc1 [Resveratrol]	–	< 40%	Negative	–
CC1=NCC[C@@H](C(=O)O)N1 [Ronacare Ectoin]	–	–	Low (“Low” refers to a percent protection less than 40%)	Negative
COC1=C(OC)C(=O)C(C/C=C(\C)CC/C=C(\C)CC/C=C(\C)CC/C=C(\C)CC/C=C(\C)CC/C=C(\C)CC/C=C(\C)CC/C=C(\C)CC/C=C(\C)CCC=C(C)C)=C(C)C1=O [Ubiquinone(coQ10), Ubiquinone]	> 70%	–	–	–
O=C1O[C@H]([C@@H](O)CO)C(O)=C1O [Vit C]	–	–	Low (“Low” refers to a percent protection less than 40%)	Low (“Low” refers to a percent protection less than 40%)
C=CC(C)(C)c1cc(/C=C/C(=O)c2ccc(O)cc2)c(OC)cc1O [licochalcone A]	–	–	–	Negative
catechin	–	–	Medium (“Medium” refers to a percent protection less than or equal to 70% but greater than or equal to 40%)	Strong (“strong” refers to a percent protection greater than 70%)
